According to PubChem BioAssay AID2060613 (Molecular Pharmacology Branch, DTP, NCI, 2025):
Values joined by “and” are separate entries in the source; they are usually repeats but may differ in a detail not shown here. Equal values may be shown once.

System: 233499-124-R-J3-PDC complex spheroid viability
Experiment: Anticancer human tumor 233499-124-R-J3-PDC patient-derived colon adenocarcinoma cell line growth inhibition [CLK]
Conditions: for viability, T/C: stronger effect = lower value
Outline: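 Multi-cell-type spheroids combined patient-derived tumor cells with HUVEC endothelial cells and human mesenchymal stem cells. Paired agents were dosed in half-log steps down from about clinical Cmax, or from 10 microM where Cmax was unknown.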

[1] = curve of first compound, second compound 0.0316 µM
[2] = curve of first compound, second compound 0.1 µM
[3] = curve of first compound, second compound 0.316 µM
[4] = curve of first compound, second compound 1 µM
[5] = curve of first compound, second compound 3.16 µM
[6] = curve of first compound, second compound 10 µM
[7] = second compound 0.0316 µM, first compound 0.0316 µM
[8] = second compound 0.0316 µM, first compound 0.1 µM
[9] = second compound 0.0316 µM, first compound 0.316 µM
[10] = second compound 0.0316 µM, first compound 1 µM
[11] = second compound 0.1 µM, first compound 0.0316 µM
[12] = second compound 0.1 µM, first compound 0.1 µM
[13] = second compound 0.1 µM, first compound 0.316 µM
[14] = second compound 0.1 µM, first compound 1 µM
[15] = second compound 0.316 µM, first compound 0.0316 µM
[16] = second compound 0.316 µM, first compound 0.1 µM
[17] = second compound 0.316 µM, first compound 0.316 µM
[18] = second compound 0.316 µM, first compound 1 µM
[19] = second compound 1 µM, first compound 0.0316 µM
[20] = second compound 1 µM, first compound 0.1 µM
[21] = second compound 1 µM, first compound 0.316 µM
[22] = second compound 1 µM, first compound 1 µM
[23] = second compound 3.16 µM, first compound 0.0316 µM
[24] = second compound 3.16 µM, first compound 0.1 µM
[25] = second compound 3.16 µM, first compound 0.316 µM
[26] = second compound 3.16 µM, first compound 1 µM
[27] = second compound 10 µM, first compound 0.0316 µM
[28] = second compound 10 µM, first compound 0.1 µM
[29] = second compound 10 µM, first compound 0.316 µM
[30] = second compound 10 µM, first compound 1 µM
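Note: spheroids exposed to the drug combinations for seven days.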
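Throughout, for viability, T/C: percent viability relative to DMSO vehicle control wells taken as 100%.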

Compound: COc1c(OCCCN2CCOCC2)ccc2c3n(c(=NC(=O)c4cnc(N)nc4)nc12)CCN3 + CNC(=O)c1ccc(Nc2nc(OC3CCCC3)c3c(-c4ccc5nc(C)oc5c4)c[nH]c3n2)c(OC)c1
- IC50 [1]: 0.172 µM
- IC50 [2]: 0.111 µM
- IC50 [3]: 0.0885 µM
- IC50 [4]: 0.0259 µM
- IC50 [5]: 0.0417 µM
- IC50 [6]: 0.0272 µM
- viability, T/C (second compound 0.0316 µM, first compound 0.00316 µM): 90%
- viability, T/C (second compound 0.0316 µM, first compound 0.01 µM): 91%
- viability, T/C [7]: 81.6%
- viability, T/C [8]: 65.3%
- viability, T/C [9]: 33.2%
- viability, T/C [10]: 5.74%
- viability, T/C (second compound 0.1 µM, first compound 0.00316 µM): 70.5%
- viability, T/C (second compound 0.1 µM, first compound 0.01 µM): 85.4%
- viability, T/C [11]: 73.2%
- viability, T/C [12]: 53.4%
- viability, T/C [13]: 16.1%
- viability, T/C [14]: 3.37%
- viability, T/C (second compound 0.316 µM, first compound 0.00316 µM): 75.3%
- viability, T/C (second compound 0.316 µM, first compound 0.01 µM): 81.8%
- viability, T/C [15]: 68.8%
- viability, T/C [16]: 45.7%
- viability, T/C [17]: 22.6%
- viability, T/C [18]: 3.62%
- viability, T/C (second compound 1 µM, first compound 0.00316 µM): 73.5%
- viability, T/C (second compound 1 µM, first compound 0.01 µM): 59.4%
- viability, T/C [19]: 49%
- viability, T/C [20]: 31.6%
- viability, T/C [21]: 23%
- viability, T/C [22]: 3.52%
- viability, T/C (second compound 3.16 µM, first compound 0.00316 µM): 62.9%
- viability, T/C (second compound 3.16 µM, first compound 0.01 µM): 68.1%
- viability, T/C [23]: 50%
- viability, T/C [24]: 38.8%
- viability, T/C [25]: 15.3%
- viability, T/C [26]: 2.16%
- viability, T/C (second compound 10 µM, first compound 0.00316 µM): 75.1%
- viability, T/C (second compound 10 µM, first compound 0.01 µM): 65.9%
- viability, T/C [27]: 45.5%
- viability, T/C [28]: 31%
- viability, T/C [29]: 10.5%
- viability, T/C [30]: 2.07%

Compound: CCCS(=O)(=O)Nc1ccc(F)c(C(=O)c2c[nH]c3ncc(-c4ccc(Cl)cc4)cc23)c1F
- viability, T/C (compound 0.0316 µM): 91.2% and 100%
- viability, T/C (compound 0.1 µM): 97.3% and 103%
- viability, T/C (compound 0.316 µM): 111% and 99.1%
- viability, T/C (compound 1 µM): 104% and 110%
- viability, T/C (compound 3.16 µM): 104% and 105%
- viability, T/C (compound 10 µM): 98% and 65.2%
- IC50 (curve of compound): > 10 µM

Compound: CC1(C)CCC(CN2CCN(c3ccc(C(=O)NS(=O)(=O)c4ccc(NCC5CCOCC5)c([N+](=O)[O-])c4)c(Oc4cnc5[nH]ccc5c4)c3)CC2)=C(c2ccc(Cl)cc2)C1
- viability, T/C (compound 0.0316 µM): 99.6% and 96.4%
- viability, T/C (compound 0.1 µM): 98.9% and 93.4%
- viability, T/C (compound 0.316 µM): 99.4% and 96.6%
- viability, T/C (compound 1 µM): 95.5% and 98.7%
- viability, T/C (compound 3.16 µM): 111% and 105%
- viability, T/C (compound 10 µM): 12.8% and 25.5%
- IC50 (curve of compound): 6.15 µM and 6.78 µM

Compound: COc1ccc([C@@H](O)c2cc(-c3ncnc4cc(N5CCOCC5)ccc34)c(F)cc2Cl)nn1 + CNC(=O)c1ccc(Nc2nc(OC3CCCC3)c3c(-c4ccc5nc(C)oc5c4)c[nH]c3n2)c(OC)c1
- IC50 [1]: > 10 µM
- IC50 [2]: > 10 µM
- IC50 [3]: > 10 µM
- IC50 [4]: 1.51 µM
- IC50 [5]: 2.68 µM
- IC50 [6]: 0.118 µM
- viability, T/C [7]: 94.7%
- viability, T/C [8]: 89.6%
- viability, T/C [9]: 86.6%
- viability, T/C [10]: 97%
- viability, T/C (second compound 0.0316 µM, first compound 3.16 µM): 81.1%
- viability, T/C (second compound 0.0316 µM, first compound 10 µM): 52.8%
- viability, T/C [11]: 54.9%
- viability, T/C [12]: 65.2%
- viability, T/C [13]: 67.8%
- viability, T/C [14]: 55.8%
- viability, T/C (second compound 0.1 µM, first compound 3.16 µM): 65.5%
- viability, T/C (second compound 0.1 µM, first compound 10 µM): 63.8%
- viability, T/C [15]: 68.4%
- viability, T/C [16]: 52.1%
- viability, T/C [17]: 57%
- viability, T/C [18]: 50.2%
- viability, T/C (second compound 0.316 µM, first compound 3.16 µM): 69.4%
- viability, T/C (second compound 0.316 µM, first compound 10 µM): 41.3%
- viability, T/C [19]: 84.6%
- viability, T/C [20]: 64%
- viability, T/C [21]: 64.6%
- viability, T/C [22]: 51.1%
- viability, T/C (second compound 1 µM, first compound 3.16 µM): 48.4%
- viability, T/C (second compound 1 µM, first compound 10 µM): 37.6%
- viability, T/C [23]: 72.8%
- viability, T/C [24]: 68.9%
- viability, T/C [25]: 37.1%
- viability, T/C [26]: 55.2%
- viability, T/C (second compound 3.16 µM, first compound 3.16 µM): 65.3%
- viability, T/C (second compound 3.16 µM, first compound 10 µM): 39%
- viability, T/C [27]: 55.3%
- viability, T/C [28]: 49.2%
- viability, T/C [29]: 43.7%
- viability, T/C [30]: 46.4%
- viability, T/C (second compound 10 µM, first compound 3.16 µM): 47.7%
- viability, T/C (second compound 10 µM, first compound 10 µM): 38.9%

Compound: C=CC(=O)N1CCN(c2nc(=O)n(-c3c(C)ccnc3C(C)C)c3nc(-c4c(O)cccc4F)c(F)cc23)C(C)C1 (stereo not given)
- viability, T/C (compound 0.0316 µM): 90.5% and 101%
- viability, T/C (compound 0.1 µM): 81.9% and 87.6%
- viability, T/C (compound 0.316 µM): 90.6% and 110%
- viability, T/C (compound 1 µM): 87.6% and 101%
- viability, T/C (compound 3.16 µM): 95% and 104%
- viability, T/C (compound 10 µM): 96% and 92.6%
- IC50 (curve of compound): > 10 µM
